In patent US20020049249A1, “PPAR receptor activator compounds for treating cutaneous disorders/afflictions” (priority 1999, published 2002):

Experiments:
Type in all cases: cell-based
PPAR-α = target: T1, PPAR-α (Homo sapiens, UniProt Q07869); experiment: PPAR-α transactivation test (luciferase reporter, cotransfected HeLa cells); parameters: concentration or dose not given beside the values; conditions: HeLa cells cotransfected with receptor vector and PPRE-luciferase reporter, 24 hours; relative to Reference 1
T1 construct: expressed in transfected cells; host or cells: HeLa cells
T1 sequence (Q07869 1-468): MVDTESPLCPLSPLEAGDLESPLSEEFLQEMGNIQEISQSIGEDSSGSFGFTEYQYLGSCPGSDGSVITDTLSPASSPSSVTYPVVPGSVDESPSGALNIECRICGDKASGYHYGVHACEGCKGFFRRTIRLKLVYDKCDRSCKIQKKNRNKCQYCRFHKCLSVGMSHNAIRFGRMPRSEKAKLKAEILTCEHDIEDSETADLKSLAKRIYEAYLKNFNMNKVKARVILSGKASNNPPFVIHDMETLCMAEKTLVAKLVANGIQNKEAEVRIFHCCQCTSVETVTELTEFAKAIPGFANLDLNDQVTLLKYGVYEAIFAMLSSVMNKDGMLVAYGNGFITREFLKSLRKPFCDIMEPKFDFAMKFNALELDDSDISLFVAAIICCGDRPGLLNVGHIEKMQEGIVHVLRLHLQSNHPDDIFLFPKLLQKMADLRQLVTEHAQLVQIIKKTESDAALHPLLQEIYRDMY
Experimental: (§1) This activity is determined employing an enzyme (luciferase) which is a reporter of the activation due to the compound via one of the PPAR receptors.
(§2) The biological tests carried out correspond to those described above. […] Thus, the activating power via PPAR-α, PPAR-γ or PPAR-δ of molecules can be evaluated with a transactivation test in which HeLa cells were cotransfected with an expression vector encoding these receptors and a reporter plasmid comprising a PPRE response element cloned upstream of a portion of a promoter of the SV40 virus and of the luciferase gene. The cotransfected cells were treated for 24 hours with the molecules to be tested and the activity of the luciferase was determined by luminescence.

PPAR-γ = target: T2, PPAR-γ (Homo sapiens, UniProt P37231); experiment: PPAR-γ transactivation test (luciferase reporter, cotransfected HeLa cells); parameters: concentration or dose not given beside the values; conditions: HeLa cells cotransfected with receptor vector and PPRE-luciferase reporter, 24 hours; relative to Reference 2
T2 construct: expressed in transfected cells; host or cells: HeLa cells
T2 sequence (P37231 1-505): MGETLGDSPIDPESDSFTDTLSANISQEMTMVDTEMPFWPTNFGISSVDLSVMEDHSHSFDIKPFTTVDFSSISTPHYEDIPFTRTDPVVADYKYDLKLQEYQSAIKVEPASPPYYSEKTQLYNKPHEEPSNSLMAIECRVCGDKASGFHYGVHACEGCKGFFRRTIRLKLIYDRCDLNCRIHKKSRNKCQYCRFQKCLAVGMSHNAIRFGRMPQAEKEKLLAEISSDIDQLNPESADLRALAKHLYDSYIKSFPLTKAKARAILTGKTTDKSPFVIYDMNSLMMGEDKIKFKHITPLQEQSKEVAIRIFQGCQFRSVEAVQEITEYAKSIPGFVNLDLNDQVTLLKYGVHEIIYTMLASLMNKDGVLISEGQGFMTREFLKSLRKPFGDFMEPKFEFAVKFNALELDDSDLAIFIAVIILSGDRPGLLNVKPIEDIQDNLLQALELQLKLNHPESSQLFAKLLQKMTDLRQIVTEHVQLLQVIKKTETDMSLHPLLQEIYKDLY
Experimental: as §1, §2

PPAR-β = target: T3, PPAR-β (Homo sapiens, UniProt Q03181); experiment: PPAR-β transactivation test (luciferase reporter, cotransfected HeLa cells); parameters: % of activation, β: concentration or dose not given beside the values; conditions: 24 hours; for % of activation, β: HeLa cells cotransfected with receptor vector and PPRE-luciferase reporter, relative to Reference 2; for AC50: HeLa cells cotransfected, concentration giving 50% of the activity of the reference molecule
T3 construct: expressed in transfected cells; host or cells: HeLa cells
T3 sequence (Q03181 1-441): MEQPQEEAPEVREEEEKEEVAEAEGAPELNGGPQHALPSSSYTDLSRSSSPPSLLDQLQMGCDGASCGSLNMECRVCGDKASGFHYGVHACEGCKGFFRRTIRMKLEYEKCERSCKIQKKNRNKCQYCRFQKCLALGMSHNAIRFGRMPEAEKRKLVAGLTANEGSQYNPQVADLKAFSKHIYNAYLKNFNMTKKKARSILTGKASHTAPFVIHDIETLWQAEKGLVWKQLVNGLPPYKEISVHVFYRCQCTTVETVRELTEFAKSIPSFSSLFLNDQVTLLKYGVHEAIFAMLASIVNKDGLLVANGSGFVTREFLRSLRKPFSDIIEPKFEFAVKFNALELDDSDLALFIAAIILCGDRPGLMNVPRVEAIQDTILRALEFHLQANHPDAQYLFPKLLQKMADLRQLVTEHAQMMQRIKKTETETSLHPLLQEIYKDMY
Experimental: as §1, §2

CC1=NC(=Cc2ccc(Oc3ccc4c(c3)C(C)(C)CCC4(C)C)cc2)C(=O)O1 [Comparative Example 1, 2-methyl-4-[4-(5,5,8,8,-tetramethyl-5,6,7,8-tetrahydronaphth-2-yloxy)benzylidine]-4H-oxazol-5-one, reference compound]
% of activation, α (PPAR-α): 5% | % of activation, γ (PPAR-γ): 0% | % of activation, β (PPAR-β): 7%

CC(=O)NC(=Cc1ccc(Oc2ccc3c(c2)C(C)(C)CCC3(C)C)cc1)C(=O)O [Comparative Example 2, 2-acetylamino-3-[4-(5,5,8,8-tetramethyl-5,6,7,8-tetrahydronaphth-2-yloxy)phenyl]-acrylic acid, reference compound]
% of activation, α (PPAR-α): 7% | % of activation, γ (PPAR-γ): 4% | % of activation, β (PPAR-β): 0%

CC1(C)CCC(C)(C)c2cc(Oc3ccc4cc(C(=O)O)ccc4c3)ccc21 [Compound 1, 6-(5,5,8,8-tetramethyl-5,6,7,8-tetrahydronaphth-2-yloxy)naphthalene-2-carboxylic acid]
% of activation, α (PPAR-α): 18% | % of activation, γ (PPAR-γ): 23% | % of activation, β (PPAR-β): 152% | AC50 (PPAR-β): 700 nM

CC1(C)CCC(C)(C)c2cc(Oc3ccc(C=CC(=O)O)cc3)ccc21 [Compound 2, 3-[4-(5,5,8,8-tetramethyl-5,6,7,8-tetrahydronaphth-2-yloxy)phenyl]acrylic acid]
% of activation, α (PPAR-α): 12% | % of activation, γ (PPAR-γ): 18% | % of activation, β (PPAR-β): 204% | AC50 (PPAR-β): 900 nM

CC1(C)CCC(C)(C)c2cc(Sc3ccc4cc(C(=O)O)ccc4c3)ccc21 [Compound 3, 6-(5,5,8,8-tetramethyl-5,6,7,8-tetrahydronaphth-2-ylsulfanyl)naphthalene-2-carboxylic acid]
% of activation, α (PPAR-α): 24% | % of activation, γ (PPAR-γ): 40% | % of activation, β (PPAR-β): 172% | AC50 (PPAR-β): 200 nM

CC(=CC(=O)O)c1ccc(Oc2ccc3c(c2)C(C)(C)CCC3(C)C)cc1 [Compound 4, 3-[4-(5,5,8,8-tetramethyl-5,6,7,8-tetrahydronaphth-2-yloxy)phenyl]but-2-enoic acid]
% of activation, α (PPAR-α): 12% | % of activation, γ (PPAR-γ): 0% | % of activation, β (PPAR-β): 56%

CC1(C)CCC(C)(C)c2cc(Nc3ccc4cc(C(=O)O)ccc4c3)ccc21 [Compound 5, 6-(5,5,8,8-tetramethyl-5,6,7,8-tetrahydronaphth-2-ylamino)naphthalene-2-carboxylic acid]
% of activation, α (PPAR-α): 25% | % of activation, γ (PPAR-γ): 69% | % of activation, β (PPAR-β): 328% | AC50 (PPAR-β): 7000 nM

Cc1cccc(Nc2cc(Cl)nc(SCC(=O)O)n2)c1C [Reference 1, [4-chloro-6-(2,3-dimethyl-phenylamino)pyrimidin-2-ylsulfanyl]acetic acid, reference compound]
% of activation, α (PPAR-α): 100%
